Results from the supplement of paper PMC6045584.
± gives the standard deviation of the averaged measurements.

compound: CC(=O)c1c(C)c2cnc(Nc3ccc(N4CCNCC4)cn3)nc2n(C2CCCC2)c1=O; test: surviving fraction relative to DMSO-only wells; higher = less growth inhibition; settings: 50 nM; exposure time: 5 days
Summary of the method: (§1)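 Inhibitors were tested at 0.5, 1, 5, 10, 50, 100, 500 and 1000 nM, applied continuously for five days beginning 24 hours after log-phase tumour cells were seeded at 250–500 per well in 384-well plates. CellTiter-Glo luminescence served as the viability measure, expressed as surviving fraction against the median of DMSO-only wells. Each line, screened three times, was kept only with replicate Pearson r >0.7 and median Z' >0.3.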

| Test System | surviving fraction |
| --- | --- |
| 93VU HEADNECK | 1.18 ± 0.12 |
| 143B BONE | 1.03 ± 0.046 |
| A549 LUNG | 1.07 ± 0.063 |
| ASKA SYNOVIAL | 1.07 ± 0.1 |
| BT20 BREAST | 0.981 ± 0.32 |
| BT549 BREAST | 1.13 ± 0.17 |
| CADOES1 SOFT TISSUE | 0.83 ± 0.053 |
| CAL51 BREAST | 0.997 ± 0.029 |
| CAL72 BONE | 1.13 ± 0.037 |
| CAL120 BREAST | 1.01 ± 0.014 |
| CASKI CERVIX | 1.09 ± 0.034 |
| CHLA90 AUTONOMIC GANGLIA | 0.934 ± 0.013 |
| CME SYNOVIAL | 1.37 ± 0.062 |
| COLO320DM LARGE INTESTINE | 1.08 ± 0.065 |
| DU4475 BREAST | 1.03 ± 0.3 |
| G292 BONE | 0.951 ± 0.062 |
| H23 LUNG | 1.132 ± 0.01 |
| HCC38 BREAST | 1.21 ± 0.15 |
| HCC78 LUNG | 1.02 ± 0.25 |
| HCC202 BREAST | 0.863 ± 0.17 |
| HCC1806 BREAST | 1.12 ± 0.1 |
| HMLE3 BREAST | 1.1 ± 0.099 |
| HMT3552 BREAST | 1.31 |
| HOS BONE | 1.114 ± 0.0042 |
| HOSMNG BONE | 1.07 ± 0.072 |
| HS57T BREAST | 1.16 ± 0.043 |
| HSSYII SYNOVIAL | 0.892 ± 0.045 |
| HT1080 SOFT TISSUE | 1.022 ± 0.0036 |
| HU09 BONE | 1.04 ± 0.15 |
| HUO3N1 BONE | 1.04 ± 0.024 |

same assay, conditions: 100 nM; exposure time: 5 days

| Test System | surviving fraction |
| --- | --- |
| 22RV1 PROSTATE | 1.11 ± 0.08 |
| 93VU HEADNECK | 1.14 ± 0.14 |
| 143B BONE | 1.043 ± 0.0099 |
| A549 LUNG | 1.12 ± 0.042 |
| ASKA SYNOVIAL | 1.08 ± 0.074 |
| BT20 BREAST | 0.924 ± 0.24 |
| BT549 BREAST | 0.979 ± 0.16 |
| CADOES1 SOFT TISSUE | 0.921 ± 0.039 |
| CAL51 BREAST | 1.07 ± 0.012 |
| CAL72 BONE | 1.14 ± 0.022 |
| CAL120 BREAST | 0.974 ± 0.0098 |
| CASKI CERVIX | 1.08 ± 0.019 |
| CHLA90 AUTONOMIC GANGLIA | 0.95 ± 0.035 |
| CME SYNOVIAL | 1.23 ± 0.099 |
| COLO320DM LARGE INTESTINE | 1.05 ± 0.048 |
| DU4475 BREAST | 0.997 ± 0.36 |

| Test System | surviving fraction |
| --- | --- |
| G292 BONE | 0.929 ± 0.058 |
| H23 LUNG | 1.12 ± 0.068 |
| HCC38 BREAST | 1.09 ± 0.096 |
| HCC78 LUNG | 1.17 ± 0.14 |
| HCC202 BREAST | 1 ± 0.25 |
| HCC1806 BREAST | 1.09 ± 0.024 |
| HMLE3 BREAST | 0.962 ± 0.086 |
| HMT3552 BREAST | 1.25 |
| HOS BONE | 1.07 ± 0.06 |
| HOSMNG BONE | 1.05 ± 0.18 |
| HS57T BREAST | 1.11 ± 0.032 |
| HSSYII SYNOVIAL | 0.914 ± 0.07 |
| HT1080 SOFT TISSUE | 1 ± 0.041 |
| HU09 BONE | 1.19 ± 0.049 |
| HUO3N1 BONE | 1.1 ± 0.016 |

same assay, conditions: 500 nM; exposure time: 5 days

| Test System | surviving fraction |
| --- | --- |
| 22RV1 PROSTATE | 1.11 ± 0.071 |
| 93VU HEADNECK | 1.17 ± 0.038 |
| 143B BONE | 1.03 ± 0.027 |
| A549 LUNG | 1.154 ± 0.007 |
| ASKA SYNOVIAL | 0.82 ± 0.034 |
| BT20 BREAST | 0.916 ± 0.22 |
| BT549 BREAST | 1.12 ± 0.12 |
| CADOES1 SOFT TISSUE | 0.726 ± 0.011 |
| CAL51 BREAST | 0.968 ± 0.052 |
| CAL72 BONE | 1.14 ± 0.078 |
| CAL120 BREAST | 0.9508 ± 0.0081 |
| CASKI CERVIX | 1.05 ± 0.049 |
| CHLA90 AUTONOMIC GANGLIA | 0.839 ± 0.053 |
| CME SYNOVIAL | 1.22 ± 0.066 |
| COLO320DM LARGE INTESTINE | 0.78 ± 0.061 |
| DU4475 BREAST | 1.02 ± 0.32 |

| Test System | surviving fraction |
| --- | --- |
| G292 BONE | 0.678 ± 0.025 |
| H23 LUNG | 1.15 ± 0.074 |
| HCC38 BREAST | 1.28 ± 0.12 |
| HCC78 LUNG | 0.619 ± 0.11 |
| HCC202 BREAST | 1.19 ± 0.15 |
| HCC1806 BREAST | 0.941 ± 0.17 |
| HMLE3 BREAST | 0.925 ± 0.12 |
| HMT3552 BREAST | 1.17 |
| HOS BONE | 1.05 ± 0.016 |
| HOSMNG BONE | 1.07 ± 0.094 |
| HS57T BREAST | 0.954 ± 0.055 |
| HSSYII SYNOVIAL | 0.811 ± 0.013 |
| HT1080 SOFT TISSUE | 0.9707 ± 0.0071 |
| HU09 BONE | 0.984 ± 0.17 |
| HUO3N1 BONE | 1.01 ± 0.05 |

same assay, conditions: 1000 nM; exposure time: 5 days

| Test System | surviving fraction |
| --- | --- |
| 22RV1 PROSTATE | 1.03 ± 0.027 |
| 93VU HEADNECK | 1.19 ± 0.045 |
| 143B BONE | 1.02 ± 0.027 |
| A549 LUNG | 1.116 ± 0.011 |
| ASKA SYNOVIAL | 0.73 ± 0.023 |
| BT20 BREAST | 0.86 ± 0.21 |
| BT549 BREAST | 1.05 ± 0.036 |
| CADOES1 SOFT TISSUE | 0.704 ± 0.048 |
| CAL51 BREAST | 0.908 ± 0.0048 |
| CAL72 BONE | 1.07 ± 0.048 |
| CAL120 BREAST | 0.935 ± 0.013 |
| CASKI CERVIX | 1.05 ± 0.028 |
| CHLA90 AUTONOMIC GANGLIA | 0.687 ± 0.015 |
| CME SYNOVIAL | 1.09 ± 0.14 |
| COLO320DM LARGE INTESTINE | 0.735 ± 0.039 |
| DU4475 BREAST | 0.951 ± 0.32 |

| Test System | surviving fraction |
| --- | --- |
| G292 BONE | 0.678 ± 0.036 |
| H23 LUNG | 1.13 ± 0.033 |
| HCC38 BREAST | 1.24 ± 0.11 |
| HCC78 LUNG | 0.579 ± 0.041 |
| HCC202 BREAST | 0.982 ± 0.22 |
| HCC1806 BREAST | 0.95 ± 0.072 |
| HMLE3 BREAST | 0.933 ± 0.066 |
| HMT3552 BREAST | 1.19 |
| HOS BONE | 1.08 ± 0.057 |
| HOSMNG BONE | 1.06 ± 0.16 |
| HS57T BREAST | 0.96 ± 0.039 |
| HSSYII SYNOVIAL | 0.737 ± 0.045 |
| HT1080 SOFT TISSUE | 0.958 ± 0.024 |
| HU09 BONE | 1.04 ± 0.059 |
| HUO3N1 BONE | 1.03 ± 0.022 |

compound: Cc1ccc(-c2cc(C(F)(F)F)nn2-c2ccc(S(N)(=O)=O)cc2)cc1 [CELECOXIB]; test: as above; settings: 0.5 nM; exposure time: 5 days
Summary of the method: as §1

| Test System | surviving fraction |
| --- | --- |
| 22RV1 PROSTATE | 1.02 ± 0.059 |
| 93VU HEADNECK | 1.02 ± 0.064 |
| 143B BONE | 0.999 ± 0.011 |
